Consider 2 compounds from patent US20200261418A1, “HDAC INHIBITOR IN COMBINATION WITH IMMUNE CHECKPOINT MODULATOR FOR CANCER THERAPY” (4SC AG, priority 2017, published 2020).

Series [1] in a line: Handling of 4SC-202 tosylate calibration solutions (light stability). Particulars: solutions in dimethylsulfoxide and dimethylsulfoxide/acetonitrile. The series is classed as physicochemical. Here is the method: For the preparation of calibration samples, 4SC-202 tosylate salt was dissolved in dimethylsulfoxide to a concentration of 1.00 mg/mL free base. For the preparation of QC samples, a second solution with a concentration of 1.00 mg/mL free base was used. Working solutions were prepared by serial dilutions in a mixture of dimethylsulfoxide/acetonitrile (50/50, v/v) to concentrations 50 times higher than the corresponding concentrations in matrix. The concentrations were calculated under consideration of purity and salt factor where applicable. All concentrations are expressed as those of the free base. […] The concentrations of the calibration are (ng/mL): 1.00, 2.00, 5.00, 20.00, 100, 500, 750, 1000. The concentrations of the QC are (ng/mL): 13.00, 20.00, 750 For preparation of the CAL and QC, the matrix was fortified with the working solutions using a ratio of 98/2 (v/v). For the preparation of the internal standard solution, 4SC-201-d6 mesylate salt was dissolved in dimethylsulfoxide to a concentration of 1.00 mg/mL of the free base. Further dilutions to a final concentration of 100 ng/mL were done in acetonitrile. The concentration was calculated under consideration of purity and salt factor.

The test system of series [2] is C38 tumor fragments. As to the kind of experiment: Preclinical murine in vivo tumor model, C38. Set-up: species or system female C57Bl/6 mice. The conditions noted are these: C38 model (FIG. 1); anti-PD1 10 mg/kg IP; 4SC-202 at 20 mg/kg PO alone or combined. Here is the method:
(§1) In vivo murine tumor models were conducted with a combination of 4SC-202 and murine anti-PD-1 and anti-PD-L1 antibodies, respectively. 1×10^6 CT26 cells or 30-50 mg C38 tumor fragments (both […] colon carcinoma cell lines) were subcutaneous implantation into the right flank of female C57Bl/6 (C38 tumor fragments) or Balb/c (CT26 cells) mice, respectively, at day 0 of the experiment.
Protocol C38: At D10, when tumors reached a mean volume of 142±27 mm^3, 160 mice out of 224, were randomized according to their individual tumor volume into 8 groups of 20 mice each. […]
(§2) Monitoring of mice body weights and tumor volume twice a week. […] Tumor width and length were measured using a digital caliper twice a week and estimated tumor volumes were calculated from measured tumor length and width using the formula Estimated tumor volume=width^2×length/2. […]

Series [3] concerns CT26 cells. As to the kind of experiment: Preclinical murine in vivo tumor model, CT26. Also on record: species or system female Balb/c mice. Particulars: CT26 model (FIG. 2); anti-PD-L1 10 mg/kg IP; 4SC-202 at 20 mg/kg PO alone or combined. How it is done: as §1
Protocol CT26: At D7, when tumors reached a mean volume of 73±21 mm^3, 80 mice out of 104, were randomized according to their individual tumor volume into 4 groups of 20 mice each. […]
as §2

Series [4] in a line: Food effect dog study, plasma pharmacokinetics. In kind it is in vivo, dogs (male Beagle). Particulars: approx. 60 mg/kg oral tablets; for AUC: male, Beagle, dog, plasma, po, 60 mg/kg, three dogs, read-out: AUC geometric mean. Here is the method:
A pharmacokinetic profile for 4SC-202 was determined in an animal study comprising three dogs (male Beagle). To allow for better comparison of the fasted/fed values and eliminate inter-subject variability, each dog first received a first dose of 4SC-202 in the fasted state, and after a wash-out phase of one week, received another dose of 4SC-202 in the fed state. After each respective dose, the plasma pK of 4SC-202 was determined
Before the first dosing, the dogs were fasted overnight and food was returned after the 4 h post-dose blood sampling collections. On each dosing day, the dogs received a single intramuscular injection of freshly prepared Pentagastrin (6 μg/kg and 0.05 mL/kg) 30-33 min prior to oral treatment with approx. 60 mg/kg 4SC-202 (tablet as detailed herein below); for fed animals, these steps were omitted and the dogs received their usual meal approx. 30 min prior to dosing. The number of tablets (4SC-202 tosylate corresponding to 100 mg 4SC-202 free base per tablet) was rounded to the nearest whole tablet based on dose and animal pre-dose body weight. Immediately after dosing the animals received 20 mL of water after oral gavage or were offered 20 mL of water to assist swallowing of the tablets.
Blood samples (1 ml per sample in K2EDTA as anticoagulant) were collected by venipuncture of a peripheral vein and placed on wet ice immediately after collection until centrifugation as 2000*g for 10 min at 2-8° C. to isolate plasma. […]
The concentration of 4SC-202 (free base) in plasma samples was determined by first precipitating the samples with three volume equivalents of acetonitrile containing the internal standard. […]
For the preparation of calibration samples, 4SC-202 tosylate salt was dissolved in dimethylsulfoxide to a concentration of 1.00 mg/mL free base. […] The concentrations were calculated under consideration of purity and salt factor where applicable. All concentrations are expressed as those of the free base. […] The concentration was calculated under consideration of purity and salt factor. […]

In series [5] the test system is heavily pre-treated patients with different types of blood cancer. The conditions noted are these: cited from earlier work.

The structures appear in SMILES notation. Read-outs that look alike come from different tables or passages of the source.

With `Cc1ccc(S(=O)(=O)O)cc1.Cn1cc(-c2ccc(S(=O)(=O)n3ccc(/C=C/C(=O)Nc4ccccc4N)c3)cc2)cn1` [4SC-202 tosylate salt], in series [1], the “light stability of solutions” value was “light instability”.

With `Cn1cc(-c2ccc(S(=O)(=O)n3ccc(/C=C/C(=O)Nc4ccccc4N)c3)cc2)cn1` [Compound 4SC-202, (E)-N-(2-aminophenyl)-3-(1-((4-(1-methyl-1H-pyrazol-4-yl)phenyl)sulfonyl)-1H-pyrrol-3-yl)acrylamide], the “anti-tumor activity compared to mice treated with vehicle” value in series [2] and in series [3] was “increase of the antitumor activity” in each case. Besides, in series [4] (dogs), the “AUC increase of the fed state over the fasted state” value is listed as “about 3.5 fold”. Also, the values for the AUC in series [4] (fasted) and in series [4] (fed) were 3980 ng·h/mL and 13900 ng·h/mL, respectively. In series [5] (24 heavily pre-treated patients, few and/or manageable adverse events), the “tolerability (adverse events)” value is reported as “well tolerated”. In addition, the “disease control, share of patients” value in series [5] (24 patients) is on record as 83%. For the same compound, in series [5] (24 patients), the “long-term stabilization, share of patients” value was 50%. Also, the “complete remission, duration” value in series [5] (one complete remission among 24 patients) was 28 months. For the same compound, the “partial responder, duration” value in series [5] (one partial responder among 24 patients) is 8 months.
